According to patent US11413278B2, “Compounds and methods for promoting stress resistance” (priority 2015, dated 2022):
“Also recorded” adds a separate entry of the source. Like-named read-outs stand apart in the source and are kept apart here.

Experiments:
[1] = test system: WI-38 cells; assay: Propidium iodide (PI) cell-death imaging upon H2O2 stress; format: cell-based, human; details: for Assay 7: H2O2-resistant, at 10 uM, validated by propidium iodide (PI) cell-death imaging: w/H2O2, 3 hrs/4 hrs/5 hrs, YES/NO; for cytotoxicity at 10 µM: Homo sapiens, WI-38
[2] = test system: C. elegans; format: in vivo, Caenorhabditis elegans; details: in vivo
In short: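 Worms treated in liquid with compounds in 96-well plates (4 wells each, FUdR to block progeny, 0.2% DMSO controls); H2O2 at 500 μM final added on day 4 of adulthood and viability scored daily.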

[3] = test system: FOXO3; assay: qPCR analysis of FOXO3-regulated genes; format: cell-based, human; details: for fold induction at 10 µM: Homo sapiens; for K = Sestrin induction: score
In short: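 WI-38 cells treated with compound at 10 μM for 24 h, followed by Cells-to-Ct RT-qPCR of FOXO3 target genes normalised to B2M, PPIA and GAPDH. FOXO3 or NRF2 dependence tested by prior 10 nM siRNA knockdown (36 h transfection, compound added ~24 h after replating).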

[4] = Summary score for characterization of 38 core set hits; details: for D = Triple resistant: 2-point score, multiplex resistance (cadmium, MMS, H2O2); for S = Sum of Negative scores: human; for C = H2O2- & Cd-resistant: score, resistance to both H2O2 and cadmium
In short: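 Composite score. 2 pts each: multiplex stress resistance, FOXO3/NRF2 activation, mTOR down-regulation. Worm lifespan (4–6 independent trials): 0 = no obvious effect, 1 = extension in 2 trials, 2 = extension in >2 trials. −1 for DNA damage and/or cytotoxicity in cultured human cells.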

[5] = test system: human dermal fibroblast (HDF) primary cells; assay: H2O2-resistance in primary human dermal fibroblasts; format: cell-based; details: for fold induction at 10 µM: Homo sapiens; for Assay 6: H2O2-resistant, at 10 uM, human dermal fibroblast (HDF) primary cells: YES/NO
[6] = test system: WI-38 cells; details: for No H2O2 stress treatment, at 10 uM (fold change): normalized ATP measurement
[7] = H2O2 3 hrs, 10 uM, n = 6, negative control 5.44% ± 0.79%, read-out: Percentage of propidium iodide-positive dead cells (under H2O2 stress treatment), 3 hrs
[8] = pre-treatment at 10 uM, 3.5 hours of H2O2, DMSO control 27.4% ± 6.5%, */**/*** = reduced by one/two/three standard deviations, read-out: Percentage of propidium iodide-positive dead cells (under H2O2 stress treatment), at 10 uM
[9] = WI-38 cells, 10 μM, 24 hrs, n=4, qPCR normalized by B2M, read-out: DDB1 Normalized fold change
[10] = WI-38 cells, 10 μM, 24 hrs, n=4, qPCR normalized by B2M, read-out: GADD45A Normalized fold change
[11] = WI-38 cells, 10 μM, 24 hrs, n=4, qPCR normalized by B2M, read-out: SESN1 Normalized fold change
[12] = qPCR, WI-38 cells, 10 μM, n=4, 24 hrs, normalized by B2M, read-out: CAT Normalized fold change
[13] = qPCR, WI-38 cells, 10 μM, n=4, 24 hrs, normalized by B2M, read-out: SOD2 Normalized fold change
[14] = qPCR, WI-38 cells, 10 μM, n=4, 24 hrs, normalized by B2M, read-out: TXNIP Normalized fold change
[15] = Experiment 1, HDF cells, read-out: Experiment 1, HDF cells (under H2O2 stress treatment), at 10 uM (fold change)
[16] = Experiment 2, HDF cells, read-out: Experiment 2, HDF cells (under H2O2 stress treatment), at 10 uM (fold change)
[17] = WI-38 cells, 10 μM, (*) = compromised ability to protect cells from H2O2, could be due to stability issue
[18] = asterisks indicate the loss of the ability to protect cells from H2O2 over time
[19] = derived from dose response curves, 0.6-20 uM, H2O2-resistance of WI-38 cells
[20] = read-out: Est. ED50, dose response 0.6-20 μM, H2O2-resistance

## O=C(/C(=C/c1ccc(Cl)cc1)c1nc2ccccc2[nH]1)c1ccccc1 [Gr-4D]
[1]; 10 uM
  Assay 7: H2O2-resistant, at 10 uM, validated by propidium iodide (PI) cell-death imaging: YES
[1]; [7]
  cytotoxicity at 10 µM: 1.58%
[1]; H2O2 4 hrs, 10 uM, n = 6, negative control 16.81% ± 1.42%, read-out: Percentage of propidium iodide-positive dead cells (under H2O2 stress treatment), 4 hrs
  cytotoxicity at 10 µM: 7.44%
[1]; [8]
  cytotoxicity at 10 µM: 19.8%
[2]
  H2O2-resistance assay, 1st experiment: YES;
  L = H2O2-resistance in worms: 0
  N = H2O2-resistance in woms: 0
[3]; 10 μM, 24 hrs, WI-38
  Induction of at least two of five FOXO3-regulated genes (SOD2, GADD45A, CAT, DDB1, TXNIP): could induce both FOXO3- and NRF2-regulated genes; also recorded: significant induction; also recorded: significant, induction
[3]; 10 μM, 24 hrs, WI-38 cells, qPCR, normalized to B2M, n = 4
  SOD2 expression, normalized fold change (FOXO3-regulated gene): SOD2 1.20, fold
[3]; 2-point score
  E = Potential FOXO3 Activation: 0
[3]; 24 h, Assay 10(m), at 10 uM, qPCR, read-out: Induction of FOXO3-regulated genes: CAT normalized fold-change
  fold induction at 10 µM: 1.37
[3]; 24 h, Assay 10(m), at 10 uM, qPCR, read-out: Induction of FOXO3-regulated genes: DDB1 normalized fold-change
  fold induction at 10 µM: 1.41
[3]; 24 h, Assay 10(m), at 10 uM, qPCR, read-out: Induction of FOXO3-regulated genes: GADD45A normalized fold-change
  fold induction at 10 µM: 2.11
[3]; 24 h, Assay 10(m), at 10 uM, qPCR, read-out: Induction of FOXO3-regulated genes: SESN1 normalized fold-change
  fold induction at 10 µM: 2.16
[3]; 24 h, Assay 10(m), at 10 uM, qPCR, read-out: Induction of FOXO3-regulated genes: SOD2 normalized fold-change
  fold induction at 10 µM: 1.2
[3]; WI-38, 24 h, read-out: SESN1 expression
  fold induction at 10 µM: > 1.5
[3]; 10 μM, 24 hrs, WI-38 cells, qPCR, normalized to B2M, n = 4, read-out: CAT expression, normalized fold change (FOXO3-regulated gene)
  fold induction at 10 µM: 1.37
[3]; 10 μM, 24 hrs, WI-38 cells, qPCR, normalized to B2M, n = 4, read-out: DDB1 expression, normalized fold change (FOXO3-regulated gene)
  fold induction at 10 µM: 1.41
[3]; 10 μM, 24 hrs, WI-38 cells, qPCR, normalized to B2M, n = 4, read-out: GADD45A expression, normalized fold change (FOXO3-regulated gene)
  fold induction at 10 µM: 2.11
[3]; 10 μM, 24 hrs, WI-38 cells, qPCR, normalized to B2M, n = 4, read-out: SESN1 expression, normalized fold change (FOXO3-regulated gene)
  fold induction at 10 µM: 2.16
[3]; [9]
  fold induction at 10 µM: 1.41
[3]; [10]
  fold induction at 10 µM: 2.11
[3]; [11]
  fold induction at 10 µM: 2.16
[3]; fold change, qPCR, WI-38 cells, 10 μM, 24 hrs, read-out: Summary of effects on FOXO3-regulated genes: CAT
  fold induction at 10 µM: 1.37
[3]; fold change, qPCR, WI-38 cells, 10 μM, 24 hrs, read-out: Summary of effects on FOXO3-regulated genes: DDB1
  fold induction at 10 µM: 1.41
[3]; fold change, qPCR, WI-38 cells, 10 μM, 24 hrs, read-out: Summary of effects on FOXO3-regulated genes: GADD45A
  fold induction at 10 µM: 2.11
[3]; fold change, qPCR, WI-38 cells, 10 μM, 24 hrs, read-out: Summary of effects on FOXO3-regulated genes: SESN1
  fold induction at 10 µM: 2.16
[3]; [12]
  fold induction at 10 µM: 1.37
[3]; [13]
  fold induction at 10 µM: 1.2
[3]; [14]
  fold induction at 10 µM: 1.09
[3]; fold change, qPCR, WI-38 cells, 10 μM, 24 hrs
  Summary of effects on FOXO3-regulated genes: SOD2: SOD2 1.20,
[3]
  K = Sestrin induction: 1
[3]; summary score
  E = Potential FOXO3 Activation: 0
[4]
  D = Triple resistant: 0
  S = Sum of Negative scores: 0
  C = H2O2- & Cd-resistant: 1
[5]; [15]
  fold induction at 10 µM: 1.06
[5]; [16]
  fold induction at 10 µM: 2
[5]
  Assay 6: H2O2-resistant, at 10 uM, human dermal fibroblast (HDF) primary cells: YES
[6]; [17]
  H2O2-resistant: YES
[6]; WI-38 cells
  No H2O2 stress treatment, at 10 uM (fold change): 1.11 fold change
[6]; YES/NO, if NO, possibly due to repeated freezing/thawing of stocks
  Assay 1: H2O2-resistant: YES
[6]; [18]
  H2O2-resistant: YES
[6]; [19]
  EC50: 10.6 µM
[6]; [20]
  EC50: 8.9 µM

## Cc1ccc(S(=O)(=O)Nc2cccc3cccnc23)cc1 [Gr-3B]
[1]; 10 uM
  Assay 7: H2O2-resistant, at 10 uM, validated by propidium iodide (PI) cell-death imaging: YES
[1]; [7]
  cytotoxicity at 10 µM: 4.63%
[1]; [8]
  cytotoxicity at 10 µM: 2.6%
[2]
  H2O2-resistance assay, 1st experiment: YES;
  L = H2O2-resistance in worms: 0
  N = H2O2-resistance in woms: 0
[3]; 2-point score
  E = Potential FOXO3 Activation: 0
[3]; [9]
  fold induction at 10 µM: 1.12
[3]; [10]
  fold induction at 10 µM: 1.16
[3]; [11]
  fold induction at 10 µM: 1.07
[3]; [12]
  fold induction at 10 µM: 1.11
[3]; [13]
  fold induction at 10 µM: 1.14
[3]; [14]
  fold induction at 10 µM: 1.06
[3]
  K = Sestrin induction: 0
[3]; summary score
  E = Potential FOXO3 Activation: 0
[4]
  D = Triple resistant: 0
  S = Sum of Negative scores: 0
  C = H2O2- & Cd-resistant: 0
[5]; [15]
  fold induction at 10 µM: 3.1
[5]; [16]
  fold induction at 10 µM: 1.59
[5]
  Assay 6: H2O2-resistant, at 10 uM, human dermal fibroblast (HDF) primary cells: YES
[6]; [17]
  H2O2-resistant: YES
[6]; WI-38 cells
  No H2O2 stress treatment, at 10 uM (fold change): 0.90 fold change
[6]; [18]
  H2O2-resistant: YES
[6]; [19]
  EC50: 8.5 µM
[6]; [20]
  EC50: 4.24 µM
